# Reference: patent publication US12485092B2, “Composition for promoting drug release of drug-delivery liposomes” (INDUSTRY ACADEMY COOPERATION FOUNDATION OF SEJONG UNIVERSITY, priority 2022, dated 2025)
# Experiments:
# in vivo = details: SD, rat, iv, 5 mg/kg
# Experimental: Eight week-old SD rats were randomly divided into three groups (doxorubicin, CAELYX and CAELYX+omega liposome), respectively. Each group was anesthetized with 100 mg/kg of ketamine, followed by inserting polyethylene tubes into the jugular vein and the carotid for drug injection and blood gathering, respectively. To the three groups, the doxorubicin solution, CAELYX and a CAELYX+omega liposome mixture were intravenously administered through the jugular vein at a 5 mg/kg doxorubicin dose. Thereafter, 120 μL of blood was collected at 1, 5, 15, 30, 60, 120, 180, 240, 360, 480, 720, 960, 1,440, 2,160 and 2,880 minutes, respectively, and centrifuged, followed by gathering 50 μl of plasma to analyze a doxorubicin concentration through HPLC. In order to prevent blood coagulation after blood gathering, 0.3 mL of physiological saline for injection containing 201U of heparin was flushed. In addition, after drug administration, urine was collected up to 24 hours and measured for volume.
# For quantification of doxorubicin concentration in plasma and urine, 100 μL of acetonitrile and 15 μL of 15 μg/mL daunorubicin (internal standard material) were added and well mixed in 50 μL of the plasma or urine, and then centrifuged at 13,000 rpm for 5 minutes to remove the plasma protein. Thereafter, 100 μL of the supernatant was introduced into HPLC column (reversed phase column, particle size 5 inner diameter 4.6 mm, length 250 mm). Mobile phase composed of 68:32 (v/v) mixture of water (pH 2.60) and acetonitrile was used at a flow rate of 1 mL/min. For detection of drugs, a fluorescence detector was used wherein excitation (Ex) wavelength is 475 nm and emission (Em) wavelength is 555 nm.
# The plasma concentration of doxorubicin quantified by HPLC assay was used to calculate pharmacokinetic parameters using WinNonlin program. For statistical analysis of the pharmacokinetic parameters among the above three groups, Tukey's test was carried out after performing analysis of variance (ANOVA), wherein P<0.05 is considered to be statistically significant.
# [1] = tested on: HCT-116 colorectal cancer cells
compound,measurement,setting,value
"COc1cccc2c1C(=O)c1c(O)c3c(c(O)c1C2=O)C[C@@](O)(C(=O)CO)C[C@@H]3O[C@H]1C[C@H](N)[C@H](O)[C@H](C)O1 [Doxorubicin solution, doxorubicin]",AUC,in vivo,9.82 µg·h/mL
same,MRT,in vivo,1.18 h
same,clearance,in vivo,0.535 ± 0.124 L/h/kg
same,half-life,in vivo,1.97 h
same,IC50,[1],0.265 µM
same,IC50,B16-F10 melanoma cells,0.191 µM
